Drawing on US9670213B2, “Pteridine ketone derivative and applications thereof as EGFR, BLK, and FLT3 inhibitor” (EAST CHINA UNIVERSITY OF SCIENCE AND TECHNOLOGY, priority 2012, dated 2017), this text covers IC50 for eleven molecules.

The target in experiment [1] is EGFR-L858R/T790M (Homo sapiens (Human), UniProt P00533, L858R/T790M). Nature of the experiment: In vitro EGFR kinase activity assay (Z'-Lyte). It counts as biochemical. The conditions noted are these: read-out: Inhibitory activity on EGFR kinase (IC50, nM) T790M/L858R.
Sequence of EGFR-L858R/T790M (P00533 25-1210 T790M/L858R): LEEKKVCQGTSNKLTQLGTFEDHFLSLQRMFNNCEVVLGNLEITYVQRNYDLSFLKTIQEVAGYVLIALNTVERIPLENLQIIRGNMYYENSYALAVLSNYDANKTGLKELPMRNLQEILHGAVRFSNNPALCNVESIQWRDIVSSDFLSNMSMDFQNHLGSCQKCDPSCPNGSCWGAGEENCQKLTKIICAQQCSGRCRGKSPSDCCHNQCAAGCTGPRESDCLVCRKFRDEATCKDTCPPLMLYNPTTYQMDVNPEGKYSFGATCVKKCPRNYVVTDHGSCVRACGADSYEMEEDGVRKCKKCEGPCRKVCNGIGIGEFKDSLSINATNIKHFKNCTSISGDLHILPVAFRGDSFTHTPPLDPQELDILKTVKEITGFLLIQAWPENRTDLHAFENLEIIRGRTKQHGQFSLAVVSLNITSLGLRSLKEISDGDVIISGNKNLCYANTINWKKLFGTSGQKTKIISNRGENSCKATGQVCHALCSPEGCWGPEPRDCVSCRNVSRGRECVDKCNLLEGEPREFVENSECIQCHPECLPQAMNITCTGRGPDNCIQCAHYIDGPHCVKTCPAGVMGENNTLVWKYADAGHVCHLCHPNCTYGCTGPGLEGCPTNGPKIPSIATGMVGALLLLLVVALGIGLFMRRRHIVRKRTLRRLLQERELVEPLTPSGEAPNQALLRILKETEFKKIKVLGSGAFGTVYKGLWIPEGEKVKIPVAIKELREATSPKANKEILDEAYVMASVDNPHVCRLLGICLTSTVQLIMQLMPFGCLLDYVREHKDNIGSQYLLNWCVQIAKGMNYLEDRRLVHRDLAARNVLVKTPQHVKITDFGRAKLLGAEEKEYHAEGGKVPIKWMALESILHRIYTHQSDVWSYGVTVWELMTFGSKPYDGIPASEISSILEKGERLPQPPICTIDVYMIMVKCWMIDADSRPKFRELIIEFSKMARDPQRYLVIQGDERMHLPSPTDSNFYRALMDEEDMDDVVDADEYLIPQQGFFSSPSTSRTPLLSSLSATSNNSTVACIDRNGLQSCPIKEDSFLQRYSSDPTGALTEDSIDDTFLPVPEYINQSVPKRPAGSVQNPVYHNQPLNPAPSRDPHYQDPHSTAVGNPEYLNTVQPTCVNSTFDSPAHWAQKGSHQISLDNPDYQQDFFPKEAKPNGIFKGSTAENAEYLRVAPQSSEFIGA
Experimental: (§8) Inhibitory effects in vitro of the compounds provided in the present invention on EGFR kinase activity was tested as follows:
(§9) 10 concentration gradients, from 5.1×10^−11 mol/L to 1.0×10^−6 mol/L, were set for all of the compounds to be tested.
(§10) 10 μL of kinase reaction system comprised 2.5 μL of compound solution, 5 μL of Kinase/peptide mixture, and 2.5 μL of ATP solution. 5 μL of phosphopeptide solution was used in place of kinase/peptide mixture as 100% phosphorylation control. […] After thoroughly mixing the solution within the plate, the plate was incubated at room temperature for 1.5 hours. 5 μL of DevelopmentSolution was added into each well, and then the plate was incubated at room temperature for another 1 hour, and non-phosphorylated peptide was cleaved within this period. Finally, the reaction was quenched by adding 5 μL of Stop Reagent. The Plate was measured with EnVision Multilabel Reader (Perkin Elmer). Experimental data were calculated by using GraphPad Prism version 4.0. Each experiment was repeated more than three times.
The target in experiment [2] is FLT3 (Homo sapiens (Human), UniProt P36888). As to the kind of experiment: FLT3 kinase activity assay (Caliper). It counts as biochemical. As to conditions: read-out: Inhibitory activity on kinase (IC50, nM) FLT3. Here is the method: (§1) Preparation of 1× kinase matrix buffer and stop buffer.
Sequence of FLT3 (P36888 27-993): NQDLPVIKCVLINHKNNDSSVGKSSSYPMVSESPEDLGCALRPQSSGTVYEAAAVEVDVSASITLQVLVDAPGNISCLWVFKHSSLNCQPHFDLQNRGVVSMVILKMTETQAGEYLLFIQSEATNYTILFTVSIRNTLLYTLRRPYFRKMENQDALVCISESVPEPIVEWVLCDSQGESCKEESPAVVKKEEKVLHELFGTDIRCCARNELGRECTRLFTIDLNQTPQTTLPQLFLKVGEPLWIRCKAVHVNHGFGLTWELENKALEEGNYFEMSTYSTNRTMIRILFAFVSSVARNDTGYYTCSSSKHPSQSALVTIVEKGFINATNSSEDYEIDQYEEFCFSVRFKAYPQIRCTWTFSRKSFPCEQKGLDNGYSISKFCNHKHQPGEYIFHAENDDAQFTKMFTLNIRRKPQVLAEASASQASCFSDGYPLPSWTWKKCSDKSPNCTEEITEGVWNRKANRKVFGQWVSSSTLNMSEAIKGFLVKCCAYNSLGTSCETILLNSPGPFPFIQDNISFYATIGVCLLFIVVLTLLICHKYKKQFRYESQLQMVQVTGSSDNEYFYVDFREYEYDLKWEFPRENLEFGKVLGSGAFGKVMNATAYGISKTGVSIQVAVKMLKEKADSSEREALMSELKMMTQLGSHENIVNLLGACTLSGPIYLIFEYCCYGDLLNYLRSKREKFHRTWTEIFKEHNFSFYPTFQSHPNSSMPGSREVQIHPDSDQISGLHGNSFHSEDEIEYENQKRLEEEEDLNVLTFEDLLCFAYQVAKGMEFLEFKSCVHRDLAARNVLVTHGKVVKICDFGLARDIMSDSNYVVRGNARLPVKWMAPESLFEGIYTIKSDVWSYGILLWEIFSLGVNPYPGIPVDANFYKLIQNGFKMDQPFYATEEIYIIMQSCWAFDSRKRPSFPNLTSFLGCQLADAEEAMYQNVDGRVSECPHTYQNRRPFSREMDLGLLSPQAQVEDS
(§2) Preparation of compound solution. The compound was dissolved in 100% DMSO to a concentration, which was 50 times of the final highest inhibiting-concentration. 100 μL of the compound solution as said above was transferred into wells of 96-well plate. The above compound solution was sequentially diluted to the final desired concentration. In two blank wells of same 96-well plate, 100 μL of 100% DMSO was added as no-compound and no-kinase control, and this plate was used as the original plate.
(§3) Preparation of intermediate plate. 10 μL of compound solution was transferred from the original plate to another 96-well plate as the intermediate plate; 90 μL of 1× kinase buffer was added into each well of the intermediate plate, and the intermediate plate was shaken for 10 min.
(§4) Preparation of assay plate. 5 μL of solution from each well of intermediate plate was added into a 384-well plate, and repeated controls were set.
(§5) Kinase reaction. 2.5× kinase solution and 2.5× peptide solution were prepared. 2.5× kinase solution was transferred into assay plate. Assay plate comprised 5 μL of the compound solution in 10% DMSO. 10 μL of 2.5× kinase solution was added in each well of 384-well assay plate. […] 2.5× peptide solution was added into each well. After incubated at 28° C. for an appropriate time, 25 μL of stop buffer was added to quench the reaction. Experimental data were collected in Caliper. Curve was fitted.

In experiment [3] the test system is HCC827 (non-small cell lung cancer cells, EGFR del E746-A750). As to the kind of experiment: Cell proliferation and growth inhibition analysis. As to conditions: Homo sapiens, 72 hours, read-out: Inhibitory activity on cell proliferation (IC50, μM) HCC827. It counts as cell-based. Here is the method: (§6) Cell proliferation was evaluated by MTS assay. Cells were exposed to the process conditions for 72 hours, and the number of cells for each cell line used in the experiment was adjusted according to the absorbance value (absorbance value at 490 nm was 1.3-2.2). 6 concentration gradients (0.1 nM-10 μM) were set for the compounds to be tested, with six parallel controls for each concentration.
(§7) H1975, HCC827, A549, BT474, MCF-7, SK-BR-3 cells were cultured in the corresponding medium. Upon recovery, the cells were passaged at least two times and then used in experiments. Cells in Log phase were trypsinized and resuspended in the medium. H1975 (1000 cells per well), BT474 (1500 cells per well), MCF-7 (1500 cells per well), HCC827 (2000 cells per well), SK-BR-3 (2000 cells per well), A549 (2000 cells per well) were seeded into 96-well plates, the volume was 100 μL, and 6 rows and 7 columns were set. The plate was placed in an incubator at 37° C. of 5% carbon dioxide overnight. Compounds were dissolved in DMSO to obtain the concentration of […], and then gradually diluted to obtain the concentration of compound as […], 0.1 μM, 0.01 μM, 0.001 μM, 0.0001 μM. 2 μL of compound solution was added into 998 μL of medium, and the resulting mixture was thoroughly mixed. 100 μL of mixture was added into 96-well plate. […] After the cells were cultured for 68 hours, 20 μL of MTT (5 mg/mL) was added. After 4 hours, the supernatant was discarded and 150 μL of DMSO was added. The resulting system was shaken for 10 minutes, and the plate was read with Synergy HT (Bio TeK) (OD490). The data was calculated by GraphPad Prism version 4.0, and IC50 was obtained by non-linear regression model using dose-response curve.

In experiment [4] the test system is H1975 (non-small cell lung cancer cells, EGFR L858R/T790M). As to the kind of experiment: Cell proliferation and growth inhibition analysis. It counts as cell-based. As to conditions: Homo sapiens, NCI-H1975, 72 hours, read-out: Inhibitory activity on cell proliferation (IC50, μM) H1975. Here is the method:
as §6, §7

Experiment [5] addresses EGFR-L858R (Homo sapiens (Human), UniProt P00533, L858R). Nature of the experiment: In vitro EGFR kinase activity assay (Z'-Lyte). It counts as biochemical. The conditions noted are these: read-out: Inhibitory activity on EGFR kinase (IC50, nM) L858R.
Experimental: as §8, §9, §10
Experiment [6] has as its target wild-type EGFR (Homo sapiens (Human), UniProt P00533). Nature of the experiment: In vitro EGFR kinase activity assay (Z'-Lyte). The format is biochemical. As to conditions: EGFR WT; read-out: Inhibitory activity on EGFR kinase (IC50, nM) WT.
Experimental: as §8, §9, §10
Experiment [7] addresses BLK (Homo sapiens (Human), UniProt P51451). As to the kind of experiment: BLK kinase activity assay (Caliper). The format is biochemical. The conditions noted are these: read-out: Inhibitory activity on kinase (IC50, nM) BLK. Here is the method: as §1, §2, §3, §4, §5
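Throughout, for Inhibitory activity on EGFR kinase (IC50, nM) L858R: Cell-free kinase reaction with peptide substrate and ATP, 1.5 h at room temperature, then development step cleaving non-phosphorylated peptide, 10-point dilution series 0.051–1000 nM, phosphopeptide as 100% phosphorylation control.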
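Throughout, for Inhibitory activity on EGFR kinase (IC50, nM) T790M/L858R: Cell-free kinase reaction with peptide substrate and ATP, 1.5 h at room temperature, development cleaving unphosphorylated peptide, 10-point dilution 0.051–1000 nM, phosphopeptide as 100% phosphorylation control.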
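Throughout, for Inhibitory activity on EGFR kinase (IC50, nM) WT: Ten-point dose series from 5.1×10^−11 to 1.0×10^−6 mol/L, kinase reaction 1.5 h at room temperature, then 1 h development cleaving unphosphorylated peptide, phosphopeptide as 100% phosphorylation control.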

Sequence of wild-type EGFR (P00533 25-1210): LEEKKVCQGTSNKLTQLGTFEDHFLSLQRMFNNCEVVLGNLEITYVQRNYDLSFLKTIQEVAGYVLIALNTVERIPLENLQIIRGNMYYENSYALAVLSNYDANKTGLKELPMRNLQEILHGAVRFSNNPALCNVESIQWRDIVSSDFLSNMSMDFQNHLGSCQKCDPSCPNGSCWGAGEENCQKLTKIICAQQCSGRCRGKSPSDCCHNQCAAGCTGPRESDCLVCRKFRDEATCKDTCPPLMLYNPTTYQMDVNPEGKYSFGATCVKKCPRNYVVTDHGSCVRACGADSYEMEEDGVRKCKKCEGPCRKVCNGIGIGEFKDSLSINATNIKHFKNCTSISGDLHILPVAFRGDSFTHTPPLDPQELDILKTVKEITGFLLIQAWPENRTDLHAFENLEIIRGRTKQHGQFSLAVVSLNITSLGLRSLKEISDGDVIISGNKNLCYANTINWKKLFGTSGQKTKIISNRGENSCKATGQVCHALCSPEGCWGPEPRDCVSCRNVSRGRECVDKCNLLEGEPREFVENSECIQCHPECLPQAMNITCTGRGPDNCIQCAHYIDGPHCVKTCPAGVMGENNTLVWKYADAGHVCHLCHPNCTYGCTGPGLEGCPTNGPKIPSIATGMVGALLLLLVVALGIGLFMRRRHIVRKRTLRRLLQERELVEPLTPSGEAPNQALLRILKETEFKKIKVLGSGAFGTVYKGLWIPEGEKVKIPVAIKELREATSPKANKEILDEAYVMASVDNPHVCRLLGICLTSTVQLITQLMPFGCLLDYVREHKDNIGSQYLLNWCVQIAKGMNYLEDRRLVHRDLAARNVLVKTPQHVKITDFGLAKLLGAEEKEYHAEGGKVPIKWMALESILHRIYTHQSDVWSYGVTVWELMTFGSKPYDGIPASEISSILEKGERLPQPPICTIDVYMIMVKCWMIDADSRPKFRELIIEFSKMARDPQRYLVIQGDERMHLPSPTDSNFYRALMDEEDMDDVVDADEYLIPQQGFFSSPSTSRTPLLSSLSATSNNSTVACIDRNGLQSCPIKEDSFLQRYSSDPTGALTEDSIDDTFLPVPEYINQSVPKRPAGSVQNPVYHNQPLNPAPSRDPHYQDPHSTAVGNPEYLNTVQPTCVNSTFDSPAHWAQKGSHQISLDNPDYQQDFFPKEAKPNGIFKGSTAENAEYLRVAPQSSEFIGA
Sequence of EGFR-L858R (P00533 25-1210 L858R): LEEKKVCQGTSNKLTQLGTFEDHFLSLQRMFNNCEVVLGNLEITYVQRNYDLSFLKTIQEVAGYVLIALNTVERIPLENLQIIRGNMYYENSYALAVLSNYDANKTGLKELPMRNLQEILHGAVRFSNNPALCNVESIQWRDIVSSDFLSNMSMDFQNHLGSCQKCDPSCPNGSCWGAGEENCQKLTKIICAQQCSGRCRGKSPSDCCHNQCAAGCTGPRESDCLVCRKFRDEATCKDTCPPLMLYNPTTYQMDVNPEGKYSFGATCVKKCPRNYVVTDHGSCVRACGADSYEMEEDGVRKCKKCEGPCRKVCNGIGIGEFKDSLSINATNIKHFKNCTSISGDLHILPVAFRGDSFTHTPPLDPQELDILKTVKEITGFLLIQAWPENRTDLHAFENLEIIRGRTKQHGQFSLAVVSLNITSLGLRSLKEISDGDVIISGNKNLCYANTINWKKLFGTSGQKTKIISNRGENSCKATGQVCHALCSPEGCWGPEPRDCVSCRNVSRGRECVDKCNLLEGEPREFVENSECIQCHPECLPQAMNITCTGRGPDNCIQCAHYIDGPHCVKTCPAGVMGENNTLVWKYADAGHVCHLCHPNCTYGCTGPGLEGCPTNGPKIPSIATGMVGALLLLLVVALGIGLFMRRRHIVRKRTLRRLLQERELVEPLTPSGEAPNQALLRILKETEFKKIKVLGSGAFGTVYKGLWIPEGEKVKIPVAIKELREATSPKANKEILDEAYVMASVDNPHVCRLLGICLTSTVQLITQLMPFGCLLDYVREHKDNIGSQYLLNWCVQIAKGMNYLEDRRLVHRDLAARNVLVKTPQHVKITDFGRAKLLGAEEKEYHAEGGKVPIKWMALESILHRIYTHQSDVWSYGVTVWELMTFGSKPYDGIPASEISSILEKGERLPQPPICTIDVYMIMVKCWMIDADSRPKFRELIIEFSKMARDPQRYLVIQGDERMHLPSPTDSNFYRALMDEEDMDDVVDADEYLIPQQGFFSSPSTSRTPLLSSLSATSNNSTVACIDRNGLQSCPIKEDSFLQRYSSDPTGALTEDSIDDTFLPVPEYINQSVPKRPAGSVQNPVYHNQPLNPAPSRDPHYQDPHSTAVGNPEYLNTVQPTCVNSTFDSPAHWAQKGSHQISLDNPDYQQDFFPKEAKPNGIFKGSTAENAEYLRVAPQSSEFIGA
Sequence of BLK (P51451 whole entry): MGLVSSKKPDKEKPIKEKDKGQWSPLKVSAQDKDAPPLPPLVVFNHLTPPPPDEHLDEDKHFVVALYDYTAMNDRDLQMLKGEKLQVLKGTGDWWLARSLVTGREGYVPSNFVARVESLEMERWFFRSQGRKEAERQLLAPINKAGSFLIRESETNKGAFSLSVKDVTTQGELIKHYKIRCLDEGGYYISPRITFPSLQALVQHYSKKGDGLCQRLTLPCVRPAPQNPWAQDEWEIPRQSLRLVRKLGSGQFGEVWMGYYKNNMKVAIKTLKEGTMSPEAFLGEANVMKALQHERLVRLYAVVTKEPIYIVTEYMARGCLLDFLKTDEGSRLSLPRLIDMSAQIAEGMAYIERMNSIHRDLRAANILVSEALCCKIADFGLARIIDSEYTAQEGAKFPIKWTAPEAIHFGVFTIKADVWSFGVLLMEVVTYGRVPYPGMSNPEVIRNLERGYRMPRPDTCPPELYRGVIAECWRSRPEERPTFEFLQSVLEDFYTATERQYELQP

With `C=CC(=O)Nc1cccc(-n2c(=O)cnc3cnc(Nc4ccc(N(CC)CC)cc4)nc32)c1` [Compound 023, N-(3-(2-(4-(diethylamino)phenylamino)-7-oxo-8(7H)-pteridin-yl)phenyl) acrylamide], the IC50 in experiment [1] stood at 5.57 nM; in experiment [2], 1760 nM; in experiment [3] it was 0.031 µM; in experiment [4] it was 0.477 µM; in experiment [5] it was 16.3 nM; in experiment [6], 23.1 nM. For the same molecule, the IC50 in experiment [7] is 83 nM.

In the case of `C=CC(=O)Nc1cccc(Nc2ncc3ncc(=O)n(-c4ccc(OC)cc4)c3n2)c1` [Compound 027, N-(3-(8-(4-methoxyphenyl)-7-oxo-7,8-dihydro-pteridin-2-amino)phenyl) acrylamide], the IC50 in experiment [1] stood at 1200 nM; in experiment [2], 119 nM; in experiment [3] it was 0.408 µM; in experiment [4] it was 3.05 µM; in experiment [5] it was 1710 nM; in experiment [6], 2000 nM. Also, the IC50 in experiment [7] is 5660 nM.

As for `C=CC(=O)Nc1ccc(-n2c(=O)cnc3cnc(Nc4ccccc4)nc32)cc1` [Compound 014, N-(4-(7-oxo-2-(phenylamino)-8(7H)-pteridin-yl)phenyl) acrylamide], the IC50 in experiment [1] is 113 nM; in experiment [2] it was 129 nM; in experiment [3], 68.1 µM; in experiment [4], 77.8 µM; in experiment [5], 26.4 nM; in experiment [6] it was 16.1 nM. In addition, the IC50 in experiment [7] amounted to 7480 nM.

Take `C=CC(=O)Nc1ccc(Nc2ncc3ncc(=O)n(-c4ccc(OC)cc4)c3n2)cc1` [Compound 029, N-(4-(8-(4-methoxyphenyl)-7-oxo-7,8-dihydro-pteridin-2-amino)phenyl) acrylamide]: the IC50 in experiment [1] is > 10000 nM; in experiment [2], 100 nM; in experiment [3] it was 0.543 µM; in experiment [4] it was 0.953 µM; in experiment [5], 1320 nM; in experiment [6], > 10000 nM. Also, the IC50 in experiment [7] is > 10000 nM.

For `COc1ccc(-n2c(=O)cnc3cnc(Nc4cccc(N)c4)nc32)cc1` [Compound 028, 2-(3-aminophenylamino)-8-(4-methoxyphenyl)-7(8H)-pteridin-one], the IC50 turned out to be 3530 nM in experiment [1]; 34 nM in experiment [2]; 15.9 µM in experiment [3]; 82.8 µM in experiment [4]; 18900 nM in experiment [5]; 10600 nM in experiment [6]. Also, in experiment [7], the IC50 turned out to be 7950 nM.

As to `C=CC(=O)Nc1ccc(-n2c(=O)cnc3cnc(Nc4ccc(Cl)cc4)nc32)cc1` [Compound 016, N-(4-(2-(4-chlorophenylamino)-7-oxo-8(7H)-pteridin-yl)phenyl) acrylamide], the IC50 in experiment [1] came to 1490 nM; in experiment [2], 358 nM; in experiment [3], 68.7 µM; in experiment [4], 20.8 µM; in experiment [5], 116 nM; in experiment [6], 7580 nM. In experiment [7], the IC50 is > 10000 nM.

For the molecule `COc1ccc(-n2c(=O)cnc3cnc(Nc4ccc(N)cc4)nc32)cc1` [Compound 030, 2-(4-aminophenylamino)-8-(4-methoxyphenyl)-7(8H)-pteridin-one], the IC50 in experiment [1] came to 6750 nM; in experiment [2] it was 43 nM; in experiment [3], 4.65 µM; in experiment [4] it was 15.3 µM; in experiment [5] it was 23800 nM; in experiment [6], 3420 nM. Further, the IC50 in experiment [7] was > 10000 nM.

`CN(C)C/C=C/C(=O)Nc1ccc(-n2c(=O)cnc3cnc(Nc4ccccc4)nc32)cc1` [Compound 012, 4-(dimethylamino)-N-(4-(7-oxo-2-(phenylamino)-8(7H)-pteridin-yl)phenyl)-2-buteneamide]: the IC50 in experiment [1] was 1920 nM; in experiment [2], 160 nM; in experiment [3], 4.42 µM; in experiment [4], 18.9 µM; in experiment [5], 5340 nM; in experiment [6] it was 5980 nM. Moreover, in experiment [7], the IC50 was 6320 nM.

In the case of `C=CC(=O)Nc1cccc(-n2c(=O)cnc3cnc(Nc4ccc(N5CCOCC5)cc4)nc32)c1` [Compound 018, N-(3-(2-(4-morpholinophenylamino)-7-oxo-8(7H)-pteridin-yl)phenyl) acrylamide], the IC50 amounted to 3.02 nM in experiment [1]; 798 nM in experiment [2]; 0.017 µM in experiment [3]; 0.216 µM in experiment [4]; 5.83 nM in experiment [5]; 7.94 nM in experiment [6]. In addition, the IC50 in experiment [7] was 41 nM.

As for `C=CC(=O)Nc1cccc(-n2c(=O)cnc3cnc(Nc4ccc(Cl)cc4)nc32)c1` [Compound 017, N-(3-(2-(4-chlorophenylamino)-7-oxo-8(7H)-pteridin-yl)phenyl) acrylamide], the IC50 is 70.3 nM in experiment [1]; 2820 nM in experiment [2]; 0.163 µM in experiment [3]; 0.82 µM in experiment [4]; 84.8 nM in experiment [5]; 67 nM in experiment [6]. In addition, in experiment [7], the IC50 worked out at 156 nM.

In the case of `C=CC(=O)Nc1cccc(-n2c(=O)cnc3cnc(Nc4ccc(C(N)=O)cc4)nc32)c1` [Compound 025, 4-(8-(3-acrylamidephenyl)-7-oxo-7,8-dihydropteridinyl-2-amino)benzamide], the IC50 in experiment [1] was 4.39 nM; in experiment [2], 1790 nM; in experiment [3] it was 0.604 µM; in experiment [4], 7.3 µM; in experiment [5], 9.64 nM; in experiment [6], 12.7 nM. In addition, the IC50 in experiment [7] is 76 nM.
